Marks after values point to notes of the source that are not given here.
Tested on: Slc:Wistar male rats given scopolamine
Assay: Passive avoidance reaction (shuttle type avoidance test box) in scopolamine-treated rats
Format: in vivo, rat
Conditions: for latent time compared with the control group: Example 2, scopolamine 0.25 or 0.5 mg/kg, drug treatment from the 2nd day
Description: 6-Week old Slc:Wistar male rats were used for the experiment after preliminary breeding including one week of quarantine. The animals were individually bred under an environment at a temperature of 22±3° C. and a humidity of 50±20% with illumination of 12 hours (8:00 to 20:00) for both the preliminary breeding and experimental periods, and the animals were given pellets (Labo MR Stock, Nihon Nosan Kogyo K.K.) and tap water ad libitum. The animals were divided into groups according to body weights as an index (10 animals/group), and trials for acquisition and reproduction of memory were performed. Each trial was performed by using a shuttle type avoidance test box. […] Each animal was put into the light room, time until the animal moved to the dark room (latent time) was measured up to 5 minutes, and when the rat moved to the darkroom, the partition was shut, and shock was given by electrification.
Each animal was subcutaneously given 0.5 mg/kg of scopolamine 30 minutes before the trial, and this procedure was continued for seven days. Scopolamine, which is an anticholinergic agent, is known to block the muscarinic acetylcholine receptor in the striate body and inhibit acquisition of new memory (Folia Pharmacol. Jpn., 97, pp. 351-359, 1991). From the third day, the test substance (Am80: 4-[(5,6,7,8-tetrahydro-5,5,8,8-tetramethyl-2-naphthalenyl)carbamoyl]benzoic acid, 10 mg/kg/day) was orally given 3 hours before the scopolamine treatment. With numerical values obtained, average and standard deviation were calculated for each group, and a homoscedasticity test was performed by F-test between the control group (no Am80 treatment) and Am80-treated group. When homoscedasticity was observed, presence or absence of significant difference was determined by Student's t-test, and when non-homoscedasticity was observed, presence or absence of significant difference was determined by Aspin-Welch's t-test.
A test was performed in the same manner as that of Example 1, except that scopolamine was given at a dose of 0.25 mg/kg or 0.5 mg/kg, and 2 mg/kg, 5 mg/kg or 12.5 mg/kg of Am80, 30 mg/kg of Tac101 (4-[(3,5-bis-trimethylsilylphenyl)-carboxamido]benzoic acid), and 10 mg/kg of HX630 (4-[2,3-(2,5-dimethyl-2,5-hexano)dibenzo[b,f][1,4]thiazepin-11-yl]benzoic acid) were given. Combinatory use of Am80 (5 mg/kg) and HX630 (10 mg/kg) was also similarly examined. Drug treatment was performed from the 2nd day.
In the same manner as that of Example 2, scopolamine was given at a dose of 0.25 mg/kg, and 10 mg/kg of 4-[5-(4,7-dimethylbenzofuran-2-yl)pyrrol-2-yl]benzoic acid (IT-K-1001) was orally given.

## CC1(C)CCC(C)(C)c2cc(NC(=O)c3ccc(C(=O)O)cc3)ccc21 [Am80, 4-[(5,6,7,8-tetrahydro-5,5,8,8-tetramethyl-2-naphthalenyl)carbamoyl]benzoic acid]
Am80 2 mg/kg/day from 2nd day, SCP 0.5 mg/kg/day, lapsed day 1
  Reaction latency: 14 s
Am80 2 mg/kg/day from 2nd day, SCP 0.5 mg/kg/day, lapsed day 2
  Reaction latency: 9 s
Am80 2 mg/kg/day from 2nd day, SCP 0.5 mg/kg/day, lapsed day 3
  Reaction latency: 23 s
Am80 2 mg/kg/day from 2nd day, SCP 0.5 mg/kg/day, lapsed day 4
  Reaction latency: 24 s
Am80 2 mg/kg/day from 2nd day, SCP 0.5 mg/kg/day, lapsed day 5
  Reaction latency: 38 s
Am80 5 mg/kg/day from 2nd day, SCP 0.25 mg/kg/day, lapsed day 1
  Reaction latency: 14 s
Am80 5 mg/kg/day from 2nd day, SCP 0.25 mg/kg/day, lapsed day 2
  Reaction latency: 15 s
Am80 5 mg/kg/day from 2nd day, SCP 0.25 mg/kg/day, lapsed day 3
  Reaction latency: 53 s
Am80 5 mg/kg/day from 2nd day, SCP 0.25 mg/kg/day, lapsed day 4
  Reaction latency: 80 s
Am80 5 mg/kg/day from 2nd day, SCP 0.25 mg/kg/day, lapsed day 5
  Reaction latency: 155 s
Am80 5 mg/kg/day from 2nd day, SCP 0.5 mg/kg/day, lapsed day 1
  Reaction latency: 19 s
Am80 5 mg/kg/day from 2nd day, SCP 0.5 mg/kg/day, lapsed day 2
  Reaction latency: 18 s
Am80 5 mg/kg/day from 2nd day, SCP 0.5 mg/kg/day, lapsed day 3
  Reaction latency: 38 s
Am80 5 mg/kg/day from 2nd day, SCP 0.5 mg/kg/day, lapsed day 4
  Reaction latency: 52 s
Am80 5 mg/kg/day from 2nd day, SCP 0.5 mg/kg/day, lapsed day 5
  Reaction latency: 71 s
Am80 10 mg/kg/day oral from 3rd day, scopolamine 0.5 mg/kg s.c., lapsed day 1 (before treatment)
  Reaction latency: 15 s
Am80 10 mg/kg/day oral from 3rd day, scopolamine 0.5 mg/kg s.c., lapsed day 2 (before treatment)
  Reaction latency: 14 s
Am80 10 mg/kg/day oral from 3rd day, scopolamine 0.5 mg/kg s.c., lapsed day 3
  Reaction latency: 26 s
Am80 10 mg/kg/day oral from 3rd day, scopolamine 0.5 mg/kg s.c., lapsed day 4
  Reaction latency: 88 s
Am80 10 mg/kg/day oral from 3rd day, scopolamine 0.5 mg/kg s.c., lapsed day 5
  Reaction latency (second): 149** second
Am80 10 mg/kg/day oral from 3rd day, scopolamine 0.5 mg/kg s.c., lapsed day 6
  Reaction latency (second): 163** second
Am80 10 mg/kg/day oral from 3rd day, scopolamine 0.5 mg/kg s.c., lapsed day 7
  Reaction latency (second): 162** second
Am80 12.5 mg/kg/day from 2nd day, SCP 0.5 mg/kg/day, lapsed day 1
  Reaction latency: 15 s
Am80 12.5 mg/kg/day from 2nd day, SCP 0.5 mg/kg/day, lapsed day 2
  Reaction latency: 24 s
Am80 12.5 mg/kg/day from 2nd day, SCP 0.5 mg/kg/day, lapsed day 3
  Reaction latency: 43 s
Am80 12.5 mg/kg/day from 2nd day, SCP 0.5 mg/kg/day, lapsed day 4
  Reaction latency: 74 s
Am80 12.5 mg/kg/day from 2nd day, SCP 0.5 mg/kg/day, lapsed day 5
  Reaction latency: 133 s
Example 1, Am80 10 mg/kg/day oral, scopolamine 0.5 mg/kg s.c., significant differences vs control from the 5th day
  latent time, course from the start of the treatment: gradually extended
  latent time compared with the control group: gradually extended

## CC1(C)CCC(C)(C)c2cc3c(cc21)Sc1ccccc1N=C3c1ccc(C(=O)O)cc1 [HX630, 4-[2,3-(2,5-dimethyl-2,5-hexano)dibenzo[b,f][1,4]thiazepin-11-yl]benzoic acid]
  latent time compared with the control group: gradually extended
HX630 10 mg/kg/day from 2nd day, SCP 0.5 mg/kg/day, lapsed day 1
  Reaction latency: 18 s
HX630 10 mg/kg/day from 2nd day, SCP 0.5 mg/kg/day, lapsed day 2
  Reaction latency: 21 s
HX630 10 mg/kg/day from 2nd day, SCP 0.5 mg/kg/day, lapsed day 3
  Reaction latency: 30 s
HX630 10 mg/kg/day from 2nd day, SCP 0.5 mg/kg/day, lapsed day 4
  Reaction latency: 33 s
HX630 10 mg/kg/day from 2nd day, SCP 0.5 mg/kg/day, lapsed day 5
  Reaction latency: 51 s

## Cc1ccc(C)c2oc(-c3ccc(-c4ccc(C(=O)O)cc4)[nH]3)cc12 [IT-K-1001, 4-[5-(4,7-dimethylbenzofuran-2-yl)pyrrol-2-yl]benzoic acid]
Example 3, 10 mg/kg oral, scopolamine 0.25 mg/kg
  effect on the action of scopolamine (reaction latency): markedly inhibited the effect of scopolamine
IT-K-1001 10 mg/kg/day oral, SCP 0.25 mg/kg/day, lapsed day 1
  Reaction latency: 22 s
IT-K-1001 10 mg/kg/day oral, SCP 0.25 mg/kg/day, lapsed day 2
  Reaction latency: 11 s
IT-K-1001 10 mg/kg/day oral, SCP 0.25 mg/kg/day, lapsed day 3
  Reaction latency: 106 s
IT-K-1001 10 mg/kg/day oral, SCP 0.25 mg/kg/day, lapsed day 4
  Reaction latency: 115 s
IT-K-1001 10 mg/kg/day oral, SCP 0.25 mg/kg/day, lapsed day 5
  Reaction latency: 206 s
IT-K-1001 10 mg/kg/day oral, SCP 0.25 mg/kg/day, lapsed day 6
  Reaction latency: 291 s
IT-K-1001 10 mg/kg/day oral, SCP 0.25 mg/kg/day, lapsed day 7
  Reaction latency: 300 s
IT-K-1001 10 mg/kg/day oral, SCP 0.25 mg/kg/day, lapsed day 8
  Reaction latency: 281 s

## C[Si](C)(C)c1cc(C(=O)Nc2ccc(C(=O)O)cc2)cc([Si](C)(C)C)c1 [Tac101, 4-[(3,5-bis-trimethylsilylphenyl)-carboxamido]benzoic acid]
  latent time compared with the control group: gradually extended
Tac101 30 mg/kg/day from 2nd day, SCP 0.5 mg/kg/day, lapsed day 1
  Reaction latency: 19 s
Tac101 30 mg/kg/day from 2nd day, SCP 0.5 mg/kg/day, lapsed day 2
  Reaction latency: 21 s
Tac101 30 mg/kg/day from 2nd day, SCP 0.5 mg/kg/day, lapsed day 3
  Reaction latency: 47 s
Tac101 30 mg/kg/day from 2nd day, SCP 0.5 mg/kg/day, lapsed day 4
  Reaction latency: 69 s
Tac101 30 mg/kg/day from 2nd day, SCP 0.5 mg/kg/day, lapsed day 5
  Reaction latency: 107 s
